Laboratory results from PubChem BioAssay (NCI).
Several values for one entry are separate records, joined by “and”; a condition that tells them apart may be missing. Identical values can stand only once.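 Cells were grown in 96-well plates and exposed to each compound for 48 hours at five concentrations; endpoints were interpolated linearly between bracketing concentrations, or set to the highest concentration if not reached. GI50 marks 50% less growth. Definition used: TGI = concentration required for complete inhibition of growth.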

Key:
Test in all cases: NCI anticancer screen, dose series, 48 h
HL-60(TB) leukemia = tested on: HL-60(TB) leukemia
NCI-H522 lung = tested on: NCI-H522 lung
CCRF-CEM leukemia = tested on: CCRF-CEM leukemia
SK-MEL-28 melanoma = tested on: SK-MEL-28 melanoma
SF-268 CNS = tested on: SF-268 CNS
SF-295 CNS = tested on: SF-295 CNS
LOX IMVI melanoma = tested on: LOX IMVI melanoma
MCF7 breast = tested on: MCF7 breast
OVCAR-5 ovarian = tested on: OVCAR-5 ovarian
NCI/ADR-RES ovarian = tested on: NCI/ADR-RES ovarian

Structure (SMILES)	TGI (HL-60(TB) leukemia) [µM]	TGI (NCI-H522 lung) [µM]	TGI (CCRF-CEM leukemia) [µM]	TGI (SK-MEL-28 melanoma) [µM]	TGI (SF-268 CNS) [µM]	TGI (SF-295 CNS) [µM]	GI50 (LOX IMVI melanoma) [µM]	TGI (LOX IMVI melanoma) [µM]	GI50 (HL-60(TB) leukemia) [µM]	GI50 (MCF7 breast) [µM]	TGI (MCF7 breast) [µM]	GI50 (NCI-H522 lung) [µM]	GI50 (OVCAR-5 ovarian) [µM]	TGI (OVCAR-5 ovarian) [µM]	GI50 (SK-MEL-28 melanoma) [µM]	GI50 (SF-268 CNS) [µM]	GI50 (SF-295 CNS)	GI50 (CCRF-CEM leukemia) [µM]	GI50 (NCI/ADR-RES ovarian) [µM]	TGI (NCI/ADR-RES ovarian) [µM]
Cc1cc(Cl)ccc1N1C(=O)C(=O)C(c2nc3ccccc3o2)C(=O)C1=O	> 100	> 100	> 100	> 100	> 100	> 100	–	–	–	–	–	–	–	–	–	–	–	–	–	–
O=c1oc2c(cc1-c1ccccc1)C(O)Oc1ccccc1-2 (stereo not given)	26.8	21.2	–	25	83.6	97.1	13	> 100	2.6	4.29	> 100	4.97	31.3	> 100	3.1	16.3	8.79 µM	–	–	–
C=C[Si](C)(C)COC(=O)/C(C#N)=C/C=C/c1ccccc1	> 100	> 100	> 100	> 100	> 100	> 100	–	–	–	–	–	–	–	> 100	–	–	–	–	–	–
COC1C(O)CC(OC2CC(OC3CC(O[C@@H]4C(=O)c5c(cc6cc(OC7CC(OC8CC(O)C(O)C(C)O8)C(O)C(C)O7)c(C)c(O)c6c5O)C[C@H]4[C@H](OC)C(=O)[C@@H](O)[C@@H](C)O)OC(C)C3O)OC(C)C2O)OC1C (stereo not given in full)	1.57	0.0358	> 100	0.0224	> 94	> 20.3	0.0164	> 100	< 0.0215	–	–	–	–	0.564	–	–	–	0.0329	–	–
CCOC(=O)N1CCc2cc(OC)c(OC)cc2/C1=C/c1ccc(OC)c(OC)c1	65.1	> 100	> 100	> 100	> 100	> 100	–	> 100	–	–	–	–	–	> 100	–	–	–	–	–	–
COc1ccc(C(=O)C/C(=N/NC(N)=S)C(=O)Nc2ccccc2)cc1	> 100	–	> 100	> 100	> 100	> 100	–	> 100	–	–	–	–	–	> 100	–	–	–	–	–	–
NC1=NCC(c2ccccn2)C1c1ccc(F)cc1 (stereo not given)	–	> 100	> 100	> 100	> 100	> 100	–	> 100	–	–	–	–	–	> 100	–	–	–	–	–	–
Cc1cccc(Cl)c1NC(=O)c1cccc([N+](=O)[O-])c1O	–	50.4	> 100	> 100	96.5	> 100	–	82.9	–	–	–	–	–	> 100	–	–	–	–	–	–
COc1ccc(C2N3CCCCC3[C@@H]3c4[nH]c5ccccc5c4CCN23)c(OC)c1 (stereo not given in full)	42	–	63.3	36.9	53	> 100	–	–	–	–	–	–	–	79.7	–	–	–	–	–	–
O=C([CH-]C(=O)c1ccccc1)c1ccccc1.[CH3-].[CH3-].[CH3-].[Sn+4]	16	24.2	–	47.1	81.3	31.5	7.95	25.9	2.67	–	–	11.8	37.2	86.5	15.6	12.9	6.68 µM	–	–	–
CN(C)CCC(/C=C/c1ccccc1)=N\Nc1ccc(Cl)cc1	5.32	7.77	11	27.2	6.56	13.1	–	3.57	–	–	–	–	–	2.89	–	–	–	–	–	–
NC(=NCCO)c1ccc(N2CCCN(c3ccc(C(N)=NCCO)cc3)CC2)cc1	–	–	–	> 100	–	> 100	> 100	> 100	–	–	–	–	> 100	> 100	> 100	–	> 100 µM	–	> 100	> 100
CC(C)(C)c1cc(-c2c3nc(c(-c4cc(C(C)(C)C)cc(C(C)(C)C)c4)c4ccc([nH]4)c(-c4cc(C(C)(C)C)cc(C(C)(C)C)c4)c4nc(c(-c5cc(C(C)(C)C)cc(C(C)(C)C)c5)c5ccc2[nH]5)C=C4)C=C3)cc(C(C)(C)C)c1	> 100	> 100	> 100	> 100	> 100	> 100	–	> 100	–	–	–	–	–	> 100	–	–	–	–	–	–
Cc1cccc2cc3cccc(C(=O)NCCN(C)C)c3nc12	1.15	1.19	3.53	2.21	3.84	1.74	–	0.568	–	–	–	–	–	1.63	–	–	–	–	–	–
Oc1c(Cl)cc(CN(Cc2cc(Cl)c(O)c(Cl)c2)C2CCCCC2)cc1Cl	–	> 100	–	> 100	> 100	> 100	–	> 100	–	–	> 100	–	–	> 100	–	–	–	–	–	> 100
O=[N+]([O-])c1ccc2nc3ccscc-3c2c1	30.4	59.9	> 100	> 100	> 100	> 100	–	85.9	–	–	–	–	–	> 100	–	–	–	–	–	–
CC1NCCc2c1[nH]c1cc(O)ccc21 (stereo not given)	> 100	–	> 100	> 100	> 100	> 100	–	> 100	–	–	–	–	–	> 100	–	–	–	–	–	–
COc1cc(/C=C2\NC(=S)C3Cc4c(OC)c(C)c(OC)c(OC)c4C2N3C)c(OC)c(C)c1OC (stereo not given)	67.6	97.9	> 100	> 100	> 100	> 100	–	> 100	–	–	–	–	–	> 100	–	–	–	–	–	–
CC(=O)OCC1OC(n2c(=S)n(-c3ccccc3)c(=O)c3cc(Br)ccc32)C(OC(C)=O)C(OC(C)=O)C1OC(C)=O (stereo not given)	> 100	> 100	> 100	> 100	> 100	> 100	–	> 100	–	–	–	–	–	> 100	–	–	46.5 µM and > 100 µM	–	–	–
C=C(CN(C)Cc1ccccc1)c1ccc(C(=O)Nc2ccccc2N)cc1	–	–	–	> 50	16.8	16.7	1.05	3.69	–	16.8	> 50	–	5.46	21.4	7.79	5.98	5.4 µM	–	1.07	4.94
COC(=O)[C@@H]1[C@H](O)[C@H](C)[C@H](O)[C@H](C)/C=C\C=C(C)C(=O)Nc2c(C)c(OC(C)=O)c3c(c2O)C(=O)C(C)=C2OCOC(=C23)C(C)=C[C@@](C)(O)[C@H](O)[C@@H](C)[C@H]1OC(C)=O	34	–	> 100	> 100	> 100	> 100	–	> 100	–	–	65.3	–	–	> 100	–	–	–	–	–	–
